Data as given in ChEMBL document CHEMBL1158226, “Comparative study of the vasodilatory effects of three quinazoline alkaloids isolated from Evodia rutaecarpa” (J Nat Prod, 1996).
Calls of active or inactive are those of the source. No cut-off for these calls is given here.

Legend:
Aorta [1] = experiment: Vasodilatory activity in Sprague-Dawley rat endothelium-intact thoracic aortic ring assessed as inhibition of phenylephrine-induced contraction; assay type: functional, tissue-based
Aorta [2] = experiment: Vasodilatory activity in Sprague-Dawley rat endothelium-intact thoracic aortic ring assessed as inhibition of phenylephrine-induced contraction at 0.1 to 100 uM; assay type: functional
Aorta [3] = experiment: Vasodilatory activity in Sprague-Dawley rat endothelium-denuded thoracic aortic ring assessed as inhibition of phenylephrine-induced contraction; assay type: functional, tissue-based
Aorta [4] = experiment: Vasodilatory activity in Sprague-Dawley rat endothelium-denuded thoracic aortic ring assessed as inhibition of phenylephrine-induced contraction at 0.1 to 100 uM; assay type: functional
Aorta [5] = experiment: Vasodilatory activity in endothelium-denuded Sprague-Dawley rat thoracic aortic ring assessed as inhibition of phenylephrine-induced contraction preincubated with L-NAME for 10 mins; assay type: functional, tissue-based
Aorta [6] = experiment: Vasodilatory activity in endothelium-denuded Sprague-Dawley rat thoracic aortic ring assessed as inhibition of phenylephrine-induced contraction in absence of L-NAME; assay type: functional, tissue-based
Aorta [7] = experiment: Vasodilatory activity in endothelium-denuded Sprague-Dawley rat thoracic aortic ring assessed as inhibition of phenylephrine-induced contraction preincubated with TEA for 1 hr; assay type: functional, tissue-based
[8] = Antagonist activity at alpha-adrenoceptor in Sprague-Dawley rat endothelium denuded thoracic aorta assessed as inhibition of phenylephrine-induced contraction; assay type: functional, tissue-based
[9] = target: T1, Adrenergic receptor alpha-1 (Rattus norvegicus, UniProt P15823+P23944+P43140); experiment: Displacement of [3H]prazosin from alpha1 adrenoceptor in rat heart membrane; assay type: cell membranes
T1 sequence (P15823 whole entry): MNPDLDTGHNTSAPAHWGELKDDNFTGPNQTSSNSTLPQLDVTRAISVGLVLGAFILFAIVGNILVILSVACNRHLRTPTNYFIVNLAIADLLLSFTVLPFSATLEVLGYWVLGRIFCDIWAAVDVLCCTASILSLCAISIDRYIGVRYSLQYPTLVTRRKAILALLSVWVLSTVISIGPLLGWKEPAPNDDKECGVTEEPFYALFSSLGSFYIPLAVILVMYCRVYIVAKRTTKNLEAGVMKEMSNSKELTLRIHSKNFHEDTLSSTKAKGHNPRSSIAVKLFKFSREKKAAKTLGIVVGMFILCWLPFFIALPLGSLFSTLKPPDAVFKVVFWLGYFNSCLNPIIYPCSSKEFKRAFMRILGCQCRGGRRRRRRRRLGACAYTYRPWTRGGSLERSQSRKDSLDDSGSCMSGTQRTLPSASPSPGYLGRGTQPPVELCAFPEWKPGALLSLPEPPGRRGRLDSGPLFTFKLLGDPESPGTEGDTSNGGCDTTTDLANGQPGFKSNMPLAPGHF
T1 sequence (P23944 whole entry): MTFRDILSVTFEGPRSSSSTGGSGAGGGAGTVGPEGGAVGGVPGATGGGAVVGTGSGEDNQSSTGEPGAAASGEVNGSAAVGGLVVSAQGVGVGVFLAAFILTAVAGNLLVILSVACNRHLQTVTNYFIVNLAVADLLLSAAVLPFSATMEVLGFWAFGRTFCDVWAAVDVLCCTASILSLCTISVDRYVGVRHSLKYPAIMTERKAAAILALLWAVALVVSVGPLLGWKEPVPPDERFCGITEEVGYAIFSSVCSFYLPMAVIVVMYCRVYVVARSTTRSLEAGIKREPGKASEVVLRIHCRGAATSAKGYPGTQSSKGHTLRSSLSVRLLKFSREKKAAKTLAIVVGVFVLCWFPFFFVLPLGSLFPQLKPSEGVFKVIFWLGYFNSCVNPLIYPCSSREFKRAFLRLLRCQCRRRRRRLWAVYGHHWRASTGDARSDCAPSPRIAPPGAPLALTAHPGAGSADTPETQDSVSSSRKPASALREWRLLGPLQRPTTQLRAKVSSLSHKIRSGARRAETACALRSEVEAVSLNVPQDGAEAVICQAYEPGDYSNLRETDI
T1 sequence (P43140 whole entry): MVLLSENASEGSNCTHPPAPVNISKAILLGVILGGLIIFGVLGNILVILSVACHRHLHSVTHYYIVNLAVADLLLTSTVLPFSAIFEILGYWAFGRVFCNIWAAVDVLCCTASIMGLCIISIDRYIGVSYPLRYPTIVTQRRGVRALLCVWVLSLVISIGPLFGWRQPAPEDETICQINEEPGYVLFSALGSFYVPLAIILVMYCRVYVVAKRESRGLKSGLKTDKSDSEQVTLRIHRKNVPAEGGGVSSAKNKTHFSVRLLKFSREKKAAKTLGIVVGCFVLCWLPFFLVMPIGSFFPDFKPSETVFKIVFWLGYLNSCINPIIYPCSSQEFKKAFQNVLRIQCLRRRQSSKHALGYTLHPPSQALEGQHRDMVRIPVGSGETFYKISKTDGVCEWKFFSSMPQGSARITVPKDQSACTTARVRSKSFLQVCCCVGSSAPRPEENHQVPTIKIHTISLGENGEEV

[10] = Binding affinity to DHP binding site of L-type calcium channel at > 100 uM by radioligand binding assay
[11] = Antagonist activity at 5-HT receptor in Sprague-Dawley rat endothelium denuded thoracic aorta assessed as inhibition of 5HT-induced contraction; assay type: functional, tissue-based
Aorta [12] = experiment: Vasodilatory activity in Sprague-Dawley rat thoracic aortic ring assessed as inhibition of potassium chloride-induced contraction; assay type: functional, tissue-based
[13] = Binding affinity to DHP binding site of L-type calcium channel by radioligand binding assay
Aorta [14] = experiment: Vasodilatory activity in Sprague-Dawley rat endothelium-intact thoracic aortic ring assessed as inhibition of phenylephrine-induced contraction at 100 uM; assay type: functional; design: scale not given: the % may be the effect or the level left

Row | SMILES | EC50 (Aorta [1]) | Emax (Aorta [2]) | EC50 (Aorta [3]) | Emax (Aorta [4]) | EC50 (Aorta [5]) | EC50 (Aorta [6]) | Activity (Aorta [7]) | pA2 [8] | Ki [9] | Activity [10] | pA2 [11] | Activity (Aorta [12]) | Activity [13] | Activity (Aorta [14])
1 | C[n+]1c2n(c(=O)c3ccccc31)CCc1c-2[nH]c2ccccc12 [DEHYDROEVODIAMINE] | 1640 nM | 100% | 7780 nM | 100% | 5830 nM | 1600 nM | Active | 6.89 | 2400 nM | Active |  |  |  | 
2 | CN1c2ccccc2C(=O)N2CCc3c([nH]c4ccccc34)[C@@H]21 [EVODIAMINE] | 930 nM | 100% | 8140 nM | 49.8% | 2920 nM |  | Active |  |  |  | 6.25 | Active | inactive | 
3 | O=c1c2ccccc2nc2n1CCc1c-2[nH]c2ccccc12 [RUTAECARPINE] | 1050 nM | 96% | 1750 nM | 23% |  |  | Active |  |  |  |  |  | inactive | 72%
